Results: patent US20240018129A1, “COMPOUNDS AS PU. 1 INHIBITORS” (PEKING UNIVERSITY, priority 2020, published 2024)

What was measured:
[1] = target: T1, PU.1 (Mus musculus, UniProt P17433); assay: q-PCR of TIM-3 expression in Blast-PU.1 cells (PU.1 inhibition potency); format: cell-based; conditions: 10 μM, Blast-PU.1 cells, 24 h treatment, q-PCR
T1 construct: EGFP (from 'PU.1-EGFP-vector'); expressed in transfected cells
From the text: An acute T cell lymphoblastic leukemia (T-ALL) disease model was used to evaluate the effect of the newly synthesized compounds on PU.1 inhibition. Pten, a famous tumor suppressor gene, was […] deleted in mouse hematopoietic stem cells and their differentiated progeny, and this would eventually lead to a progressive T-ALL in about two months from born. It is believed that immune checkpoint T cell immunoglobulin mucin-3 (TIM-3), a surface marker for the isolation of pure leukemia-initiating cells (LICs), is transcriptionally regulated by transcription factor PU.1 in the Pten-null T-ALL model. Therefore, the expression level of TIM-3 was detected and quantified to characterize the inhibition potency of the compounds after 24 h treatment of graded concentrations of compounds. Blast cells were transfected with either PU.1-EGFP-vector or EGFP-vector to yield stable cell lines blast-PU.1 and blast-EGFP, respectively. These cell lines were used for compound testing in vitro. Compounds DB1976 and DB2115 were tested as well for comparison. Blast-PU.1 and blast-EGFP are the ideal cell lines for compounds testing in vitro, since they are T-ALL blast cells with […] TIM-3 and PU.1 expression level.

[2] = system: bleomycin-induced pulmonary fibrosis; assay: bleomycin-induced pulmonary fibrosis, preventive and therapeutic models; format: in vivo, mouse; conditions: preventive model, 5mpk i.p. for 4 weeks after single bleomycin injection
Description: Methods: To evaluate the preventive and therapeutic effects of compound I-1 on pulmonary fibrosis, bleomycin was used to establish two animal models of pulmonary fibrosis with different drug intervention (6-8 weeks, C57BL/6, male). Bleomycin (0.025U, Code.D11063, OKA, China) was injected by a single intratracheal application. Equal volumes of sterilized saline served as a control. (I) Preventive model of bleomycin-induced pulmonary fibrosis. Compounds compound I-1, positive control DB1976, or vehicle (saline) were treated (injected intraperitoneally, i.p.) immediately after single bleomycin injection for 4 weeks (FIG. 4a). (II) Therapeutic model of bleomycin-induced pulmonary fibrosis. Mice were pre-charged with bleomycin for 11 days to induced pulmonary fibrosis, then treated with compounds compound I-1, positive control DB1976, or vehicle (saline) for 17 days, total time is 4 weeks after bleomycin treatment (FIG. 4h). After the last day of treatment of both models, mice were fasted overnight and euthanized. A part of lung was fixed with paraformaldehyde, embedded with paraffin, and then sliced for H&E and Sirius red staining to check pathological features, and Ashcroft scores. Hubner, R. H. et al. Biotechniques 44, 507-511, 514-507, doi:10.2144/000112729 (2008). Another part of lung were collected and stored in −80° C. after liquid nitrogen quick-freezing, RNA isolation (Code.R6934, OMEGA, USA), first cDNA reverse (Code.AT341, TransGen, China), SYBR mix (Code.AQ601, TransGen, China) for Q-PCR (LightCycle96, Roche) to verify several fibrosis-related genes mRNA level, such as, Col1a1 and Col1a2.

[3] = system: other ETS family numbers; conditions: cited from earlier work
[4] = system: HFD/CCL4-induced NASH and liver fibrosis; assay: High-fat diet (HFD) combined with CCl4 (lower dose)-induced NASH model; format: in vivo, mouse
From the text: (§1) Methods: To evaluate the potential therapeutic effects of compound I-1 on liver disorders, including liver fat steatosis and accumulation, nonalcoholic fatty liver disease (NAFLD), nonalcoholic steatosis hepatitis (NASH), and liver fibrosis, three mice models (C57BL/6, male, 8 weeks old) were used. (I) NASH diet (Code.TD.160785, ENVIGO, USA)-induced NASH model: All mice were fed with NASH diet for 10 weeks. Mice were then randomly distributed into three groups, and each group was assigned to be injected daily with vehicle, compound I-1 (2.5mpk or 5mpk, i.p.), or DB1976 (2.5mpk, i.p, as a positive control) for another 6 weeks on continuous NASH diet. A group with normal regular diet was treated with vehicle as health control. (II) High-fat diet (HFD) combinate with CCl4 (lower dose)—induced NASH model. Mice were fed with normal regular diet or HFD (kcal fat 60%—D12492, research diets) for 10 weeks, then the HFD mice were divided into two groups randomly based on the rule of minimum weight differences. Each group was assigned to be injected with CCl4 (25% v/v in olive oil, 0.5 mL/kg body weight) or pure olive oil (i.p.) twice a week for 4 weeks. Compound 1-1 or vehicle (saline) were injected (i.p.) once daily for 4 weeks at the same time with CCl4 under continuous HFD. (III) CCl4 (higher dose)—induced liver fibrosis model. Liver fibrosis was induced by CCl4 injection (20% v/v in olive oil, 10 mL/kg body weight) twice a week for 6 weeks, compound I-1 or vehicle are also injected (i.p.) once daily for 6 weeks at the same time with CCl4 application. Ail the mice in the above-mentioned three models were observed daily. After the last day of treatment of all the models, mice were fasted overnight and euthanized. Serum was collected after centrifuging of the whole blood at 4 degrees, and blood biochemistry parameters were tested through automatic biochemical instrument (BS-240VET, Mindray). Part of liver tissues were fixed with paraformaldehyde, embedded with paraffin, and then sliced for H&E or Sirius red staining to check pathological features, and NAFLD scores. Kleiner, D. E. et al. Hepatology 41, 1313-1321, doi:10.1002/hep.20701 (2005). Part of liver tissues were used fresh, embedded in optimum cutting temperature compound, and sectioned. The sections were stained with 0.5% oil red 0 according to standard procedures after fixed in 4% paraformaldehyde in PBS. Another part of liver tissues were collected and stored in −80° C. after liquid nitrogen quick-freezing, RNA. isolation (Code.R6934, OMEGA., USA), first cDNA reverse (Code.AT341, TransGen, China), SYBR mix (Code.AQ601, TransGen, China) for Q-PCR (LightCycler®96, Roche) to verify genes mRNA level, such as, fibrosis-related genes, Col1a1 and Col1a2; inflammation-related genes, IL-6 and IL-1β.

[5] = system: skin, liver and lung fibrosis; conditions: Wohlfahrt et al., Nature 2019; cited from earlier work
[6] = system: NASH; conditions: in vivo; Liu et al., J Hepatol 2020; cited from earlier work
[7] = system: NASH diet-induced NASH; assay: NASH diet-induced NASH model; format: in vivo, mouse; conditions: 2.5mpk i.p. daily for 6 weeks
From the text: as §1

[8] = target: PU.1 (Homo sapiens, UniProt P17947); conditions: cited from earlier work
[9] = system: bleomycin-induced skin fibrosis; assay: bleomycin-induced skin fibrosis, preventive and therapeutic models; format: in vivo, mouse
Description: Methods: To evaluate the preventive and therapeutic effects of compound I-1 on skin fibrosis, bleomycin was used to establish two animal models of skin fibrosis with different drug intervention (6-8 weeks, C57BL/6, male). Skin fibrosis was induced by local injection of bleomycin (0.5 mg/mL, 0.1 ml/mouse) in a skin defined area (˜1 cm^2), where the hair was removed in advance, at the upper back every other day. Subcutaneous saline injections served as controls. (I) Preventive model of bleomycin-induced skin fibrosis: Compound I-1, positive control DB1976, or vehicle (saline) were injected i.p. simultaneously with bleomycin for 4 weeks (FIG. 3a). (II) Therapeutic model of bleomycin-induced skin fibrosis: Mice were pre-charged with bleomycin for 3 weeks to induce skin fibrosis, then treated with compound I-1, positive control DB1976, or vehicle (saline) for another 3 weeks, total time is 6 weeks after the first bleomycin treatment (FIG. 30. After the last day of treatment of both models, mice were fasted overnight and euthanized. Part of the skin was fixed with paraformaldehyde after fully flat on a foil, embedded with paraffin, and then sliced for H&E, Sirius red and Masson staining to check pathological features. The epidermal thickness of each sample was calculated quantitatively with image J. Another part of skin was collected and stored at −80° C. after liquid nitrogen quick-freezing, RNA isolation (Code.R6934, OMEGA, USA), first cDNA reverse (Code.AT341, TransGen, China), SYBR mix (Code.AQ601, TransGen, China) for Q-PCR (LightCycler® 96, Roche) to verify several fibrosis-related genes mRNA level, such as, Col1a1 and Col1a2.

[10] = system: T-ALL blast cells and TIM-3-high LICs; assay: Pten-null T-ALL mouse model, compound I-1 and/or rapamycin treatment
Description: To generate a Pten-null T-ALL mouse model, Pten was 40% deleted in mouse fetal liver hematopoietic stem cells (HSCs), followed by PI3K-AKT pathway activation, hematopoietic disorder and T-ALL development. In the T-ALL crisis stage, T-ALL blasts and LICs would infiltrate mouse hematopoietic organs and non-hematopoietic organs.
After treatment, hematopoietic and non-hematopoietic organ morphology of the mice was analyzed using hematoxylin-eosin (H&E) staining.

[11] = preventive model, 5mpk i.p., 4 weeks

N=C(N)c1ccc2nc(-c3ccc(NC(=O)[C@H]4CCCN4C(=O)[C@H]4CCCN4C(=O)c4ccc(-c5nc6ccc(C(=N)N)cc6[nH]5)cc4)cc3)[nH]c2c1 [Compound I-2, (R)-1-((4-(6-carbamimidoyl-1H-benzo[d]imidazol-2-yl)benzoyl)-D-prolyl)-N-(4-(6-carbamimidoyl-1H-benzo[d]imidazol-2-yl)phenyl)pyrrolidine-2-carboxamide]
inhibition of TIM-3 expression [1]: no obvious inhibition

N=C(N)c1ccc2nc(-c3ccc(-c4nc5ccc(C(=N)N)cc5[nH]4)[se]3)[nH]c2c1 [DB1976, reference compound]
pulmonary fibrosis progress (staining, Ashcroft scores, collagen deposition, Col1a1, Col1a2 mRNA) [2]: significantly prevented | activity on other ETS family numbers [3]: inhibitory activity | serum triglyceride (TG) and total-cholesterol (TC) ([4]; fasting serum, i.p. once daily for 4 weeks): reduced | body weight, gWAT and iWAT weight radio increased by HFD/CCL4 ([4]; i.p. once daily for 4 weeks with CCl4 under HFD): reversed | collagen deposition (sirius red staining) and liver mRNA level of Col1a1 and Col1a2 ([4]; mouse, in vivo): reduced | liver fibrosis induced by HFD/CCL4 application ([4]; mouse, in vivo): significantly alleviated | skin, liver and lung fibrosis [5]: alleviated | effects on NASH progress (liver steatosis, inflammation, fibrosis, glucose homeostasis) [6]: beneficial effects | metabolic disturbance by NASH diet (body weight, liver fat, ALT, LDL-C, TC, IL-6, IL-1β, Col1a1, Col1a2) [7]: potently alleviated | potency as PU.1 inhibitor [8]: limited potency | skin fibrosis progress ([9]; preventive model, 5mpk i.p. simultaneously with bleomycin for 4 weeks, vs bleomycin/vehicle): significantly prevented | collagen deposition [9, 11]: reducing | epidermal thickness [9, 11]: reducing | mRNA level of Col1a1 and Col1a2 ([9]; preventive model, 5mpk i.p., 4 weeks, skin): decreasing | bleomycin-induced skin fibrosis ([9]; therapeutic model, 3 weeks bleomycin then 3 weeks treatment, 5mpk): significantly alleviated and reversed

CO[C@H]1C[C@@H]2CC[C@@H](C)[C@@](O)(O2)C(=O)C(=O)N2CCCC[C@H]2C(=O)O[C@H]([C@H](C)C[C@@H]2CC[C@@H](O)[C@H](OC)C2)CC(=O)[C@H](C)/C=C(\C)[C@@H](O)[C@@H](OC)C(=O)[C@H](C)C[C@H](C)/C=C/C=C/C=C/1C [rapamycin, reference compound]
proportion of blasts in bone marrow ([10]; after two days' treatment at blast crisis stage, without treatment 96.4%): 13.2% | TIM-3 high LICs proportion ([10]; after two days' treatment, bone marrow, without treatment 33.5%): 22.2%

N=C(N)c1ccc2nc(-c3ccc(NC(=O)[C@@H]4CCCN4C(=O)[C@H]4CCCN4C(=O)c4ccc(-c5nc6ccc(C(=N)N)cc6[nH]5)cc4)cc3)[nH]c2c1 [Compound I-3, (S)-1-((4-(6-carbamimidoyl-1H-benzo[d]imidazol-2-yl)benzoyl)-D-prolyl)-N-(4-(6-carbamimidoyl-1H-benzo[d]imidazol-2-yl)phenyl)pyrrolidine-2-carboxamide]
inhibition of TIM-3 expression [1]: no obvious inhibition
